Consider three molecules from US12497396B2, “Nitrogen-containing heterocyclic derivatives, method therefor and application therefor as inhibitors of KRAS G12C for the treatment of cancers” (SHANGHAI HANSOH BIOMEDICAL CO., LTD., priority 2019, dated 2025).

In general, IC50 refers to the concentration that inhibits the measured activity by half. Low values mean inhibition by little substance, high ones a need for much substance. What is called half-life is how long it takes for the measured level to halve. Read a low half-life as rapid decline.

One data set addresses T1, CYP1A2 (Homo sapiens, UniProt P05177).
T1 construct: from tissue; host or cells: human liver microsomes
T1 sequence (P05177 1-516): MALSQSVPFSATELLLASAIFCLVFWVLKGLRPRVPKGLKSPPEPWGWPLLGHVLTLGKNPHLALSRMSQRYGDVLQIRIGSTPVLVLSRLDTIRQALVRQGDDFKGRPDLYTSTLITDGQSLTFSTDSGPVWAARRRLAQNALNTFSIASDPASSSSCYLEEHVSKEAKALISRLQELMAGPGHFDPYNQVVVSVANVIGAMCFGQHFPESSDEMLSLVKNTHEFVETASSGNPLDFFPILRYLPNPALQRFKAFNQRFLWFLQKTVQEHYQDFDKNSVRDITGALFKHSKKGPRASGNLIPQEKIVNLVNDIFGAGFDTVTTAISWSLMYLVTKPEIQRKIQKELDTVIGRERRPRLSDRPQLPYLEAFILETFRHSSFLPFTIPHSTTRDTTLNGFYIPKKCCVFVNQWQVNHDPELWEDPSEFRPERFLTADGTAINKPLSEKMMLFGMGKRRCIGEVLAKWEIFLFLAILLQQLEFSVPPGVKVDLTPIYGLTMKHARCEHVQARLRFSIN
The data set is described as follows: CYP enzyme single point inhibition, human liver microsomes, 1A2. Format: in vitro ADME. To be noted: single point method. As to the method:
Using human liver microsomal incubation system, the inhibition of CYP450 enzyme subtypes by compounds was rapidly predicted by single point method. 2.5 mM NADPH: 100 mM phosphate buffer was added to 4.165 mg of NADPH (reduced nicotinamide adenine dinucleotide phosphate) to 2 mL. 0.25 mg/mL microsome: 4 mL of 100 mM phosphate buffer was added to 50 μL of 20 mg/mL microsome and mixed well. The embodiment compound to be tested was weighed and diluted to 10 mM with DMSO and then diluted to 100 μM with 100 mM phosphate buffer. • 1. In a 96-well plate, 40 μL of liver microsomes, 10 μL of substrate, 10 μL of compound to be tested were pre-incubated for 3 min. • 2. 40 μL of NADPH was added. • 3. 300 μL of acetonitrile termination solution containing internal standard was added at 20 min. • 4. Centrifugal injection.
A general note: Liver microsomes are a subcellular fraction often used to study metabolism.

Data set [1] deals with human pancreatic cancer cell MiaPaca 2 xenograft. Nature of the data set: Tumor inhibition on MiaPaca 2 transplanted tumor (CDX) model. To be noted: for TGI (%) Day 21 / tumor volume (mm^3, Mean ± SD) Day 21 / ΔT/ΔC(%) Day 21: Day 21, 6 mg/kg QD×3 w oral; for tumor volume (mm^3, Mean ± SD) Day 0: baseline Day 0, 6 mg/kg QD×3 w oral. Format: in vivo, BALB/c nude mice. The protocol: MiaPaca 2 cells were removed from the cell bank, revived and added to DMEM medium (containing 10% FBS, 1% Glu, 1% P/S) and incubated in a CO2 incubator (incubator temperature was 37° C., CO2 concentration was 5%). After the cells were spread to 80-90% of the bottom of the culture flask, the cells were continued to be cultured in the CO2 incubator. The process was repeated until the number of cells met the in vivo pharmacological inoculation requirement, and the cells in logarithmic growth period were collected and counted with an automatic cell counter, resuspended with PBS and Matrigel (volume ratio 1:1) according to the count results, made into a cell suspension (the density was 8×10^7/mL), and placed in an ice box for use.
BALB/c nude mice, female, 6-8 weeks old, weighing about 18-22 g. The mice were kept in an environment free of special pathogens and in a single ventilated cage with 5 mice in each cage. All cages, bedding and water were sterilized before use, and all animals had free access to standard certified commercial laboratory diets. Nude mice were labeled with disposable universal ear tags for mice and rats before the start of the experiment, and the skin of the inoculation site was disinfected with 75% medical alcohol before inoculation, 0.1 mL (containing 8*10^6 cells) of MiaPaca 2 tumor cells were inoculated subcutaneously on the right back of each mouse. When the tumor volume reached 100-200 mm^3, the group administration was started. The tested compounds were administered daily by oral intragastric administration, dosage/frequency (6 mg/kg QD×3 w), and the efficacy of each group at the end of the experiment was shown in Table 29.
The tumor volume (mm^3) was measured with vernier caliper twice a week, the calculation formula was V=[…], wherein D and d were the long and short diameter of the tumor, respectively. The anti-tumor efficacy was determined by dividing the average tumor increased volume of the compound-treated animals by the average tumor increased volume of the untreated animals. The formula of tumor inhibition rate is: TGI (%)=1−[(Vt−V0) administration group/(Vt−V0) solvent control group]*100%. After the experiment, all animals were euthanized.

Data set [2] can be described thus: Plasma stability, dog plasma. The data set is classed as in vitro ADME. The following applies: for Residual rate (%) 0 min / Residual rate (%) 15 min / Residual rate (%) 30 min / Residual rate (%) 60 min / Residual rate (%) 120 min: dog plasma, 37° C.; for half-life at 0.5 μM: dog, plasma. As to the method: (§1) Animal or human whole blood was collected, then the blood was put into a test tube containing anticoagulant, centrifuged at 3500 rpm for 10 min, and the upper layer of pale yellow plasma was collected. • 2), 10 μM of tested compound (m/M/V=C)
(§2) The compound was weighed, the stock solution was prepared with DMSO and the working solution was prepared with 100 mM phosphate buffer. • 3), 10 μM of positive control (1) Propantheline (Propantheline Mr=449.4 Da)
(§3) • 1) 285 μL of plasma and 15 μL of 10 μM compound (tested compound) were added in turn in a 96-well plate, and incubated at 37° C. • 2) 40 μL was taken out at 0, 15, 30, 60, 90, 120 min, respectively, and 160 μL of acetonitrile termination solution containing internal standard was added. • 3) After centrifugation (3500 rpm, 10 min), 50 μL of supernatant was taken out, and then diluted with 50 μL DDH2O and injected to LC-MS/MS.
(§4) • Instrument: Shimadzu LC-20 AD • Chromatographic column: phenomenex Gemiu® C18 (50*4.6 mm, 5 μM particle size); • mobile phase: A: acetonitrile, B: 0.1% formic acid solution […], 2.0-2.1 min: 90% A→5% A; flow rate: 0.8 mL/min; running time: 5.0 min; injection volume: 5 μL.
(§5) • Instrument: API4000 Liquid Chromatography-Mass Spectrometry, AB, USA; • the ion source was electrospray ionization source (ESI); • the temperature of dry gas (N2) was 500° C.; • electrospray voltage was 5500V; • the detection method was positive ion detection; • the scanning mode was selective response monitoring (MRM). • the scanning time was 0.1 s.

Data set [3] is described as follows: Plasma stability, rat plasma. The data set is classed as in vitro ADME. To be noted: for Residual rate (%) 0 min / Residual rate (%) 15 min / Residual rate (%) 30 min / Residual rate (%) 60 min / Residual rate (%) 120 min: rat plasma, 37° C.; for half-life at 0.5 μM: rat, plasma. The protocol:
as §1, §2, §3, §4, §5

The next data set is described as follows: in vitro. Format: in vitro ADME. The following applies: for half-life at 0.5 μM: plasma. As to the method:
as §1, §2, §3, §4, §5

As for `C=CC(=O)N1C[C@H](C)N(c2nc(=O)n(-c3c(SC)ccnc3C(C)C)c3nc(-c4c(O)cccc4F)c(F)cc23)C[C@H]1C` (single isomer, unassigned) [Embodiment 114-1], the IC50 against CYP1A2 was > 100 nM. In addition, in data set [1], the “TGI (%) Day 21” value is reported as 162.36%; the “tumor volume (mm^3, Mean ± SD) Day 21” value is reported as 67 ± 34 mm^3; the “ΔT/ΔC(%) Day 21” value was −62.36%; the “tumor volume (mm^3, Mean ± SD) Day 0” value came to 177 ± 38 mm^3.
In turn, `C=CC(=O)N1C[C@H](C)N(c2nc(=O)n(-c3c(SC)ccnc3C(C)C)c3nc(-c4c(N)ccc(Cl)c4F)c(Cl)cc23)C[C@H]1C` (single isomer, unassigned) [Embodiment 165-1] yielded an IC50 against CYP1A2 of 66.7 nM. In data set [2], the “Residual rate (%) 0 min” value worked out at 100.00%, the “Residual rate (%) 15 min” value came to 97.71%, the “Residual rate (%) 30 min” value stood at 96.32% and the “Residual rate (%) 60 min” value came to 94.86%. Further, in data set [2], the “Residual rate (%) 120 min” value came out at 92.49% and the half-life at 0.5 μM was 19.6 h. For the same molecule, in data set [3], the “Residual rate (%) 0 min” value stood at 100.00%, the “Residual rate (%) 15 min” value is on record as 95.57%, the “Residual rate (%) 30 min” value was 96.73% and the “Residual rate (%) 60 min” value is 93.97%. Also, in data set [3], the “Residual rate (%) 120 min” value amounted to 91.93% and the half-life at 0.5 μM worked out at 19.3 h. Besides, in data set [1], the “TGI (%) Day 21” value was determined as 176.76%; the “tumor volume (mm^3, Mean ± SD) Day 21” value amounted to 41 ± 19 mm^3; the “ΔT/ΔC(%) Day 21” value is on record as −76.76%; the “tumor volume (mm^3, Mean ± SD) Day 0” value amounted to 178 ± 34 mm^3. Besides, in “in vitro” (human, 0.5 μM), the “Residual rate (%) 0 min” value came out at 100.00%, the “Residual rate (%) 15 min” value is on record as 102.34%, the “Residual rate (%) 30 min” value stood at 100.28% and the “Residual rate (%) 60 min” value amounted to 90.27%. Besides, in “in vitro” (human, 0.5 μM), the “Residual rate (%) 120 min” value came to 87.22%. For the same molecule, the half-life at 0.5 μM in “in vitro” (human) was determined as 8.35 h. In the data set “in vitro” (mouse, 0.5 μM), the “Residual rate (%) 0 min” value came to 100.00%, the “Residual rate (%) 15 min” value is reported as 100.58%, the “Residual rate (%) 30 min” value is 99.52% and the “Residual rate (%) 60 min” value amounted to 99.64%. Further, the “Residual rate (%) 120 min” value in “in vitro” (mouse, 0.5 μM) is 92.32%. Further, in the data set “in vitro” (mouse), the half-life at 0.5 μM amounted to 16.9 h.
As to `C=CC(=O)N1C[C@H](C)N(c2nc(=O)n(-c3c(SC)ccnc3C(C)C)c3nc(-c4c(O)cccc4F)c(Cl)cc23)C[C@H]1C` (single isomer, unassigned) [Embodiment 166-1], in data set [2], the “Residual rate (%) 0 min” value came to 100.00%, the “Residual rate (%) 15 min” value is recorded as 99.98%, the “Residual rate (%) 30 min” value is 98.79% and the “Residual rate (%) 60 min” value turned out to be 93.69%. Moreover, in data set [2], the “Residual rate (%) 120 min” value turned out to be 86.16% and the half-life at 0.5 μM was determined as 8.88 h. In addition, in data set [3], the “Residual rate (%) 0 min” value stood at 100.00%, the “Residual rate (%) 15 min” value was 93.20%, the “Residual rate (%) 30 min” value worked out at 98.32% and the “Residual rate (%) 60 min” value was 99.08%. Further, in data set [3], the “Residual rate (%) 120 min” value is 96.46% and the half-life at 0.5 μM is 108 h. In “in vitro” (human, 0.5 μM), the “Residual rate (%) 0 min” value was found to be 100.00%, the “Residual rate (%) 15 min” value is on record as 99.15%, the “Residual rate (%) 30 min” value turned out to be 94.74% and the “Residual rate (%) 60 min” value was 89.14%. Further, the “Residual rate (%) 120 min” value in “in vitro” (human, 0.5 μM) is 78.85%. The molecule further showed a half-life at 0.5 μM in the data set “in vitro” (human) of 5.64 h. For the same molecule, in the data set “in vitro” (mouse plasma, 37° C.), the “Residual rate (%) 0 min” value turned out to be 100.00%, the “Residual rate (%) 15 min” value is given as 105.42%, the “Residual rate (%) 30 min” value is recorded as 100.02% and the “Residual rate (%) 60 min” value is given as 99.12%. Further, the “Residual rate (%) 120 min” value in “in vitro” (mouse plasma, 37° C.) was determined as 85.55%. For the same molecule, in “in vitro” (mouse), the half-life at 0.5 μM worked out at 7.75 h.
